# Source: the supplement of paper PMC10307832
# Tests used:
# Experiment in all cases: relative viability (nuclei count vs DMSO), 5 days (fraction); higher = more cells survive
# Navitoclax = compound: CC1(C)CCC(c2ccc(Cl)cc2)=C(CN2CCN(c3ccc(C(=O)NS(=O)(=O)c4ccc(N[C@H](CCN5CCOCC5)CSc5ccccc5)c(S(=O)(=O)C(F)(F)F)c4)cc3)CC2)C1 [Navitoclax]
# Procedure, shortened: (§1)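 Following overnight incubation at 37 °C, lung cancer cell lines in 1536-well plates were pinned with five library-drug doses (not always all listed) in √10 steps on vehicle-anchored plates. The cells then spent 5 days without medium change before a combined fix, permeabilisation and Hoechst stain, 4× imaging and MetaXpress nuclear counts. Viability is the treated-to-vehicle ratio of nuclei, taken as the median across plates. Only plates with control CV below 25% and at least one doubling passed.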
# C-75 = compound: CCCCCCCC[C@H]1[C@@H](C(=C)C(=O)O1)C(=O)O [C-75]
# Procedure, shortened: as §1
# AZD7762 = compound: NC(=O)Nc1cc(-c2cccc(F)c2)sc1C(=O)N[C@H]1CCCNC1 [AZD7762]
# Procedure, shortened: as §1
# [1] = compound: O=C(O)c1ccc(-c2c[nH]c3ncc(-c4ccccc4)cc23)cc1C1CCCC1
# Procedure, shortened: as §1
# XAV939 = compound: Oc1nc(-c2ccc(C(F)(F)F)cc2)nc2c1CSCC2 [XAV939]
# Procedure, shortened: as §1
Cell Line,relative viability (Navitoclax; 0.005 µM),relative viability (Navitoclax; 0.01581 µM),relative viability (Navitoclax; 0.05 µM),relative viability (Navitoclax; 0.1581 µM),relative viability (Navitoclax; 0.5 µM),"relative viability (Navitoclax; 0.5 µM, anchor plate)",relative viability (C-75; 0.08 µM),relative viability (C-75; 0.253 µM),relative viability (C-75; 0.8 µM),relative viability (C-75; 2.53 µM),relative viability (C-75; 8 µM),relative viability (AZD7762; 0.01 µM),relative viability (AZD7762; 0.03162 µM),relative viability (AZD7762; 0.1 µM),"relative viability (AZD7762; 0.2 µM, anchor plate)",relative viability (AZD7762; 0.3162 µM),relative viability (AZD7762; 1 µM),relative viability ([1]; 0.04 µM),relative viability ([1]; 0.1265 µM),relative viability ([1]; 0.4 µM),relative viability ([1]; 1.265 µM),relative viability (XAV939; 0.08 µM),relative viability (XAV939; 0.253 µM),relative viability (XAV939; 0.8 µM),relative viability (XAV939; 2.53 µM)
NCI-H2085,1.01,1.14,0.93,1.01,1.05,1.12,1.04,0.974,0.988,0.866,0.975,1.03,0.992,1.08,0.973,1.05,0.864,0.932,1.04,0.956,0.933,1.05,0.893,0.902,0.891
UMC-11,0.944,0.966,0.742,0.903,0.621,0.324,0.949,1.1,0.875,0.721,0.726,0.997,0.961,0.979,–,0.822,0.537,0.978,1.08,0.934,0.905,0.996,0.777,0.955,0.868
SK-LU-1,1.01,1.06,1.12,0.949,1.02,0.813,1,1.06,0.964,0.894,0.816,1.1,1.06,0.633,–,0.366,0.242,1.01,1.13,0.978,0.74,1.01,1.02,1.03,1.07
NCI-H520,0.997,0.925,1.14,0.99,0.94,1.12,1.02,1.21,0.952,0.615,0.825,1.09,1.01,0.972,–,0.89,0.337,1.03,0.894,1.01,0.902,1.09,0.965,0.87,0.928
HARA,0.84,1.26,0.811,0.911,1.01,1.13,0.989,0.963,0.858,0.788,1.03,0.986,0.946,0.999,0.367,0.88,0.368,0.955,1.23,0.846,1.02,1.04,0.904,0.825,0.764
